Reference: US5393744A, “Glucosyl phosphotriesters of thymidine” (Institut Pasteur, priority 1988, dated 1995)

Columns and labels:
HIV-1 virus [1] = experiment: Effect of the products on the infectious potency of the HIV-1 virus in human T lymphocytes (reverse transcriptase activity); assay type: cell-based, HIV-1 virus (LAV strain); conditions: treatment after viral absorption (FIG. 2)
Protocol: Each product was dissolved in DMSO at a concentration of 10^-3 M (stock solution), then in the culture medium immediately before use. The solution thus obtained was sterilized by filtration on a 0.22μ Millipore, then successive dilutions were made in the culture medium.
The cultures of human T lymphocytes are maintained in the medium RPMI 1640 containing 10% fetal calf serum (Seromeal), 1% of glummine (Gibco), 1% of antibiotics (PSN, Gibco), 10% of interleukin II (Biotest), 2 μg/ml of polybrene (Sigma) and a 1/2500 dilution of α-human semm-interferon. This medium is called complete medium. […]
Human lymphocytes stimulated beforehand by means of pHAp were infected by the HIV-1 virus (reverse transcriptase activity: 5000 cmp/10^6 cells). […] The viral production was monitored at each passage (and this for 13 days) by measuring the reverse transcriptase activity present in 1 ml of culture supernatant. […]
The production of the HIV-1 virus by human T cells treated or not by each product was regularly monitored by measuring the reverse transcriptase activity present in 1 ml of culture supernatant. […] After 1 hour of incubation of 37° C., the acid-insoluble products are precipitated by 20% trichloroacetic acid, filtered on 0.45μ Millipore, then the β radioactivity contained in these reaction products is measured with the aid of a Kontron scintillation counter.

HIV-1 virus [2] = experiment: Replication of HIV-1 in macrophages of sero-negative donors, continuous culture (reverse transcriptase activity); assay type: cell-based
Protocol: The drugs 6651, AZT, 6714 and ddT were diluted in DMSO.
The virus HIV-1 utilized is derived from a culture supernatant of CEM-LAV 1 cells; these latter are maintained by the addition at each passage (every 3 or 4 days) of uninfected CEM cells. The titre of the virus in the clarified culture supernatant is higher than 10^6 cpm/ml in reverse transcriptase activity and 10^3 infectious units/ml on lymphocytes of sero-negative donors.
The macrophages were obtained from a deleucocytation pocket. The mononucleated cells were separated on a Ficoll^R gradient. The cells were adjusted to 50.10^6 cells/ml in the RPMI 1640 medium (MBA) containing 20% fetal calf serum (Flow), 10 mM Hepes (Sigma), 1% of PSN and 1% of glutamine (Gibco). After 1 h of incubation at 4° C. with gentle shaking, the macrophages agglutinate among themselves. The agglutinated macrophages are sedimented for 15 mn at 4° C. The supernatant containing an enrichment in lymphocytes was removed and the pellet enriched in macrophages was diluted to 5.10^6 cells/ml in the medium previously described. The cell suspension was then placed in Petri dishes of 60 mm diameter and placed at 37° C. for 1 h 30. The unattached cells are removed and the washed cell carpet was then detached with a scraper. The cells thus recovered were used directly for the study.
For this study, the production of HIV-1 virus by infected macrophages in the presence or absence of the drugs 6714 or ddT and 6651 or AZT were monitored either in continuous culture for at least 30 days or after lysis of the macrophages at day +14 and infection of lymphocytes by this lysate.
For each test, 15.10^6 cells were or were not infected with the HIV-1 virus (6000 cpm/10^6 cells). After 1 h of absorption at 37° C., the cells were placed in 6-wells Costar plates and 5.10^-5 M or 10^-5 M of the drugs 6714 and ddT and 10^-5 M, 10^-6 M or 10^-7 M of the drugs 6651 and AZT were added to the culture medium. The medium was changed every 3 or 4 days and the reverse transcriptase activity was determined in the culture supernatant. The drugs were added at each passage to the culture medium at the respective concentrations indicated above.
3) Measurement of the reverse transcriptase activity
The reverse transcriptase activity is assayed starting from 1 ml of culture supernatant concentrated 100 times by ultra-centrifugation for 5 mn at 95.000 rpm (Rotor TL 100^R Beckman).
The pellet is resuspended in 10 μl of NTE Triton^R ×100 0.1%.
After 1 h at 37° C., the acid-insoluble products are precipitated by 20% trichloroacetic acid, filtered onto 0.45μ Millipore^R and the B radioactivity is measured with the aid of a Kontron scintillation counter.

[3] = tested on: recombinant retrovirus of murine origin (MoMLV); experiment: Residual virus (clones of βgal+ cells) after infection of mouse 3T3 test cells with LacZ recombinant MoMLV retrovirus; assay type: cell-based; conditions: 3T3 cells; for residual virus (% not inhibited) at 10 µM: 10^-5 M; for residual virus (% not inhibited) at 1 µM: 10^-6 M
Protocol: The virus used is a recombinant retrovirus of murine origin (MoMLV) in which a reporter gene (LacZ) has been introduced.
Fixed amounts of LacZ recombinant retroviruses are placed in the presence of mouse infectable test cells (3T3) with or without the product to be tested. To each recombinant retrovirus corresponds a clone of β gal^+ cells. The number of clones of βgal^+ cells is read 48 hours after the infection. The % of the residual virus (not inhibited by the product) is indicated in the following table (mean of several independent experiments): […]

[4] = NIH3T3, 48 hours after infection, mean of several experiments, read-out: % of the residual virus (not inhibited by the product)

Compound | inhibition of the multiplication of the virus (HIV-1 virus [1]; dose proportional) | proliferation of the HIV-1 virus in the macrophages (HIV-1 virus [2]; 5.10^-5 M and 10^-5 M) | residual virus (% not inhibited) at 10 µM [3, 4] | residual virus (% not inhibited) at 1 µM [3, 4] | residual virus (% not inhibited) at 0.1 µM ([3]; NIH3T3, 10^-7 M, 48 hours after infection, mean of several experiments, read-out: % of the residual virus (not inhibited by the product)) | retroviral activity (in words) ([3]; recombinant MoMLV) | inhibition of the multiplication of the virus (HIV-1 virus [1]; 10^-5 M) | proliferation of the HIV-1 virus in the macrophages (HIV-1 virus [2]; 10^-5 M, 10^-6 M and 10^-7 M) | residual virus (% not inhibited) at 100 µM ([3]; NIH3T3, 10^-4 M, 48 hours after infection, mean of several experiments, read-out: % of the residual virus (not inhibited by the product))
Cc1cn([C@H]2CC[C@@H](COP(=O)(O)OC[C@H]3OC(O)[C@H](O)[C@@H](O)[C@@H]3O)O2)c(=O)[nH]c1=O (some centres unmarked) [compound 6714, 6-glucosyl 5'-(3'-deoxy)-thymidinyl phosphate] | partial inhibition proportional to the dose of the product used | block the proliferation of the HIV-1 virus in the macrophages | 4% | 12% | 66% | active by themselves | – | – | –
CCCCCCCCCCCCCCCCOP(=O)(OC[C@H]1OC(O)[C@H](O)[C@@H](O)[C@@H]1O)OC[C@H]1O[C@@H](n2cc(C)c(=O)[nH]c2=O)C[C@@H]1N=[N+]=[N-] (some centres unmarked) [compound 6651, 6-glucosyl hexadecyl 5'-(3'-azido) thymidinyl phosphate] | – | – | 65% | 94% | – | – | total inhibition of the multiplication of the virus | block the proliferation of the HIV-1 virus in the macrophages | 11%
